Assay results: ChEMBL document CHEMBL5108048, “Potent GCN2 Inhibitor Capable of Reversing MDSC-Driven T Cell Suppression Demonstrates In Vivo Efficacy as a Single Agent and in Combination with Anti-Angiogenesis Therapy” (J Med Chem, 2022)
Calls of active or inactive are those of the source. No cut-off for these calls is given here.

Key:
[1] = test system: Panc02; assay: Antitumor activity against […] Panc02 cells xenografted in mouse assessed as decrease in MDSC- induced suppression of CD8+ T cells at 600 nM incubated for 3 days; type: functional, cell-based; conditions: time 3.0 day
[2] = Antitumor activity against mouse LL2 cells xenografted in mouse assessed as tumor growth inhibition at 50 mg/kg,po bid in presence of anti-VEGFR antibody measured after 26 days; type: functional; conditions: Lewis lung carcinoma, 624 h, time 26 day, read-out: TGI
[3] = target: T1, Transcription initiation factor TFIID subunit 1-like (Homo sapiens, UniProt Q8IZX4); assay: Inhibition of TAF1L (unknown origin) assessed as fold change
[4] = target: T2, Cyclin-dependent kinase-like 3 (Homo sapiens, UniProt Q8IVW4); assay: Inhibition of CDKL3 (unknown origin) assessed as fold change
[5] = Oral bioavailability in Balb/c mouse at 2 mg/kg; type: ADME, organism-based; conditions: in vivo
[6] = Oral bioavailability in Sprague-Dawley rat at 2 mg/kg; type: ADME, organism-based; conditions: in vivo
[7] = target: T1, Transcription initiation factor TFIID subunit 1-like; assay: Inhibition of TAF1L (unknown origin)
[8] = target: T3, eIF-2-alpha kinase GCN2 (Homo sapiens, UniProt Q9P2K8); assay: Inhibition of GCN2 (unknown origin)
[9] = Antitumor activity against mouse LL2 cells xenografted in mouse assessed as tumor growth inhibition at 50 mg/kg,po bid measured after 26 days; type: functional; conditions: Lewis lung carcinoma, 624 h, time 26 day, read-out: TGI
[10] = target: T4, Mitogen-activated protein kinase 10 (Homo sapiens, UniProt P53779); assay: Inhibition of JNK3 (unknown origin) assessed as fold change
[11] = target: T3, eIF-2-alpha kinase GCN2; assay: Inhibition of GCN2 in human SK-OV-3 cells assessed as reduction in phosphorylation of eIF2alpha by cellular assay; type: cell-based
[12] = Plasma protein binding (unknown origin) assessed as unbound fraction; type: ADME, cell-free
[13] = target: T5, Cyclin-dependent kinase-like 4 (Homo sapiens, UniProt Q5MAI5); assay: Inhibition of CDKL4 (unknown origin)
[14] = target: T6, Cyclin-dependent kinase-like 2 (Homo sapiens, UniProt Q92772); assay: Inhibition of CDKL2 (unknown origin)
T6 sequence (Q92772 whole entry): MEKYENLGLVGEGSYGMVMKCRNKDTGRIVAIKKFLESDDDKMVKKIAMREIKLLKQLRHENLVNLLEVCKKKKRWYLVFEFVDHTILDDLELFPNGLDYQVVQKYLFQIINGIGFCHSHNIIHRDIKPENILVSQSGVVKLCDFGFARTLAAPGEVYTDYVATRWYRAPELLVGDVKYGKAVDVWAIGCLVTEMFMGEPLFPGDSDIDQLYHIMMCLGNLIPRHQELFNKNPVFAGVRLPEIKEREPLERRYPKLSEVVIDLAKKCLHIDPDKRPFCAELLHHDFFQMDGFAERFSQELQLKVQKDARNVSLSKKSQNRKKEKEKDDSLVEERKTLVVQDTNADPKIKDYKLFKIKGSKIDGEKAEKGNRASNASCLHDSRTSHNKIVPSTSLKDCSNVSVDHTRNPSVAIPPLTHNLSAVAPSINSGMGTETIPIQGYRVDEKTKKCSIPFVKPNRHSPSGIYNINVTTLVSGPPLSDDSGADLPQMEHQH

[15] = target: T7, Eukaryotic translation initiation factor 2-alpha kinase 1 (Homo sapiens, UniProt Q9BQI3); assay: Inhibition of HRI (unknown origin) assessed as fold change
[16] = Clearance in Balb/c mouse at 0.5 mg/kg,iv; type: ADME, organism-based; conditions: in vivo
[17] = target: T8, Eukaryotic translation initiation factor 2-alpha kinase 3 (Homo sapiens, UniProt Q9NZJ5); assay: Inhibition of PERK (unknown origin)
T8 sequence (Q9NZJ5 whole entry): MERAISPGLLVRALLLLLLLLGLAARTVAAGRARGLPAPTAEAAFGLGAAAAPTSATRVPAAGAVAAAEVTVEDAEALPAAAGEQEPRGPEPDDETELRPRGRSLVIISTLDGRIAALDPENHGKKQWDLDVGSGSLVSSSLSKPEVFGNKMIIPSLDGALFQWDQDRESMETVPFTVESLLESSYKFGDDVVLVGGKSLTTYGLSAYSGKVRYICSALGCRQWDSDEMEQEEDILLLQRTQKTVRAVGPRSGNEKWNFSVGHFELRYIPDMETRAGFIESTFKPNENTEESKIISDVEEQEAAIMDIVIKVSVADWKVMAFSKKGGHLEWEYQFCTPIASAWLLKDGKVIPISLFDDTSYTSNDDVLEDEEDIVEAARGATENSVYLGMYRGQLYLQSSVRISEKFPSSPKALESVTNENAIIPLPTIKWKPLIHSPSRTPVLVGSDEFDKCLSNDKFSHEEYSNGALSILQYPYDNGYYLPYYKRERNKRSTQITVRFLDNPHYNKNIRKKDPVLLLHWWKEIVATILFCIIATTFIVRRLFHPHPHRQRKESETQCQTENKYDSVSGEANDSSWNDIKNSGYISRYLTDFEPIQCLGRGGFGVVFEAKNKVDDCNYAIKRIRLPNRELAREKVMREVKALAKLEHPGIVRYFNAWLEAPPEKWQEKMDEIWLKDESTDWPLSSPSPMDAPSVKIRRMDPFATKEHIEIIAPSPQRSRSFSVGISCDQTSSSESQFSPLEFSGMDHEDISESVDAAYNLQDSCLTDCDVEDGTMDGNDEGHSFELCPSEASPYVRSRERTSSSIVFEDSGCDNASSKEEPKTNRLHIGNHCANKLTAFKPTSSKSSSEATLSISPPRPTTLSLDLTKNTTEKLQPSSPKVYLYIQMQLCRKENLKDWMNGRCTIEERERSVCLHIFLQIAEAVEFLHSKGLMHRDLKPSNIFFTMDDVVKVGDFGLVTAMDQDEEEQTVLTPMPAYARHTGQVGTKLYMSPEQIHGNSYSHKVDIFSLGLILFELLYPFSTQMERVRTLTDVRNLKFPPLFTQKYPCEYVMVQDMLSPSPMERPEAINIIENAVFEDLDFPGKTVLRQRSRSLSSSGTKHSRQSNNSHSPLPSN

[18] = target: T9, Interferon-induced, double-stranded RNA-activated protein kinase (Homo sapiens, UniProt P19525); assay: Inhibition of PKR (unknown origin)
[19] = test system: Mus musculus; assay: In vivo inhibition of GCN2 in Balb/c mouse injected with […] Renca cells assessed as reduction in tumor GCN2 expression level at 15 mg/kg,po bid after 17 days; type: functional; conditions: Neoplasm, 408 h, time 17 day
[20] = target: T3, eIF-2-alpha kinase GCN2; assay: Inhibition of GCN2 in human SK-OV-3 cells assessed as reduction in phosphorylation of eIF2alpha in presence of human serum by cellular assay; type: cell-based
[21] = target: T4, Mitogen-activated protein kinase 10; assay: Inhibition of JNK3 (unknown origin)
[22] = target: T10, Cyclin-dependent kinase-like 2 (Homo sapiens) (UniProt Q92772); assay: Inhibition of CDKL2 (unknown origin) assessed as fold change
T10 sequence (whole entry): T6 sequence (Q92772 whole entry)

[23] = Volume of distribution at steady state in Balb/c mouse at 0.5 mg/kg,iv; type: ADME, organism-based; conditions: in vivo, read-out: Vdss
[24] = target: CDK6/cyclin D3 (Homo sapiens, UniProt Q00534); assay: Inhibition of CDK6/Cyclin-D3 (unknown origin); type: protein-complex assay
[25] = AUC (0-infinity) in Sprague-Dawley rat at 2 mg/kg,po; type: ADME, organism-based; parameters: time infinity, dose 2 mg/kg, route po; conditions: in vivo
[26] = target: T2, Cyclin-dependent kinase-like 3; assay: Inhibition of CDKL3 (unknown origin)
[27] = target: T5, Cyclin-dependent kinase-like 4; assay: Inhibition of CDKL4 (unknown origin) assessed as fold change
[28] = test system: Mus musculus; assay: In vivo inhibition of GCN2 in Balb/c mouse injected with […] Renca cells assessed as reduction in ATF4 expression level at 15 mg/kg,po bid after 17 days by western blot analysis; type: functional; conditions: 408 h, time 17 day
[29] = Half life in Balb/c mouse at 0.5 mg/kg,iv; type: ADME, organism-based; conditions: in vivo
[30] = target: T9, Interferon-induced, double-stranded RNA-activated protein kinase; assay: Inhibition of PKR (unknown origin) assessed as fold change
[31] = target: CDK6/cyclin D3 (Homo sapiens) (UniProt P30281+Q00534); assay: Inhibition of CDK6/Cyclin-D3 (unknown origin) assessed as fold change; type: protein-complex assay
[32] = test system: Spleen; assay: In vivo inhibition of GCN2 in Balb/c mouse injected with […] Renca cells assessed as reduction in spleen GCN2 expression level at 15 mg/kg,po bid after 17 days; type: functional; conditions: 408 h, time 17 day
[33] = AUC (0-infinity) in Balb/c mouse at 2 mg/kg,po; type: ADME, organism-based; parameters: time infinity, dose 2 mg/kg, route po; conditions: in vivo
[34] = target: T7, Eukaryotic translation initiation factor 2-alpha kinase 1; assay: Inhibition of HRI (unknown origin)
[35] = target: T11, Eukaryotic translation initiation factor 2-alpha kinase 3 (Homo sapiens) (UniProt Q9NZJ5); assay: Inhibition of PERK (unknown origin) assessed as fold change
T11 sequence (whole entry): T8 sequence (Q9NZJ5 whole entry)

[36] = […] in Sprague-Dawley rat […] assessed as half life at 0.5 mg/kg,iv; type: ADME, organism-based

T3 sequence (Q9P2K8 whole entry): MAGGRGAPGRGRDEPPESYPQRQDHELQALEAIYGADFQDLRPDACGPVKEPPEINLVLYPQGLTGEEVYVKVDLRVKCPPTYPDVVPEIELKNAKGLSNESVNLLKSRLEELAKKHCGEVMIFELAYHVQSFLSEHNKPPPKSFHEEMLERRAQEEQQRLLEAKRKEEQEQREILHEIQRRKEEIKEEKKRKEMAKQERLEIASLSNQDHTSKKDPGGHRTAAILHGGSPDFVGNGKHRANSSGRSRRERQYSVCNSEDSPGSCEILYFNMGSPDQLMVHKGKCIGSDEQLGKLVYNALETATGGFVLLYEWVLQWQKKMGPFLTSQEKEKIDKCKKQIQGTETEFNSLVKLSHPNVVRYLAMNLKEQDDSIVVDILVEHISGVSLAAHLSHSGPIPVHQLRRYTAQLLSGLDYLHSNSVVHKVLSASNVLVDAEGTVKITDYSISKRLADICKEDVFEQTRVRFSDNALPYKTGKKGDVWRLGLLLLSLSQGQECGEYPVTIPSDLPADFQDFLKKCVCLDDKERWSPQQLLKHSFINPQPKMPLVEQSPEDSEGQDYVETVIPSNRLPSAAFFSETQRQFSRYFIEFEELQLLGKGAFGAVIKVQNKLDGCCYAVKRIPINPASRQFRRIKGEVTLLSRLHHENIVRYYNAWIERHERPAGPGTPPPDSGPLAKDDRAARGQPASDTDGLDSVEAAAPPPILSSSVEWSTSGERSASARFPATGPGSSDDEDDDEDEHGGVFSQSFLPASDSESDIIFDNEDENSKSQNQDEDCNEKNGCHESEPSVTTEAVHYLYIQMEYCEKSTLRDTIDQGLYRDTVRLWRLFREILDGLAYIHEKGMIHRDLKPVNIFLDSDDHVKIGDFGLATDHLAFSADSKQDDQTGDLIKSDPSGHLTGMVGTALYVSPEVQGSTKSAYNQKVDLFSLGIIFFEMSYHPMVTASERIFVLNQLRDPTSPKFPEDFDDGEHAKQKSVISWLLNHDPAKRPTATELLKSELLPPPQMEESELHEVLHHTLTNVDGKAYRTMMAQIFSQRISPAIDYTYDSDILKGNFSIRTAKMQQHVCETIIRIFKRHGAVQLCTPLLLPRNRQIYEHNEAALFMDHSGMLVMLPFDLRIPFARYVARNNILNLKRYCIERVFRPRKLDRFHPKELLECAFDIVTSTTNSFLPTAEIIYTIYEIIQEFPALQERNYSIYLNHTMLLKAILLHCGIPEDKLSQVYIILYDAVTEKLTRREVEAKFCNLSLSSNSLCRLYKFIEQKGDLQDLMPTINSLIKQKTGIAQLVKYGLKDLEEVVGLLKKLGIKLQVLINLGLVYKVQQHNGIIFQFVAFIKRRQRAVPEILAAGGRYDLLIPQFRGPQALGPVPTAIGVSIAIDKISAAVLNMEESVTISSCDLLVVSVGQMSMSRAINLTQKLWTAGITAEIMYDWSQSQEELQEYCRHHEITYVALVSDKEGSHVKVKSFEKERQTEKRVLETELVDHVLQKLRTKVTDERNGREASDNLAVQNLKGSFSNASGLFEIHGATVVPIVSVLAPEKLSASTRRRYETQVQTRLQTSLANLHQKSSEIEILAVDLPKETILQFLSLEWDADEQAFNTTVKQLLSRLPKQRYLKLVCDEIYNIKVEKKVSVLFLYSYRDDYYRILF
T4 sequence (P53779 whole entry): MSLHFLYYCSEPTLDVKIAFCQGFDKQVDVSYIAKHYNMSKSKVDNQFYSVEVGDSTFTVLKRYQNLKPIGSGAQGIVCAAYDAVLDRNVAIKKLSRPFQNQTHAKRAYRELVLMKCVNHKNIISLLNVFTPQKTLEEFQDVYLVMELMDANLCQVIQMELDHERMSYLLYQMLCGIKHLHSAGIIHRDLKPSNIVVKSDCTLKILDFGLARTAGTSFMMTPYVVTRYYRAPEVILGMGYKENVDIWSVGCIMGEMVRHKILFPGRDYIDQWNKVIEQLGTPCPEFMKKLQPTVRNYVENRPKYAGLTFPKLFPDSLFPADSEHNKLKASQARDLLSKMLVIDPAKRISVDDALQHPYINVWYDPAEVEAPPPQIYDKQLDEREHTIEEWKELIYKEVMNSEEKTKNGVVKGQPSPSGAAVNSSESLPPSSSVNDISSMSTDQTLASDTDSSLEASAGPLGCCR
T5 sequence (Q5MAI5 whole entry): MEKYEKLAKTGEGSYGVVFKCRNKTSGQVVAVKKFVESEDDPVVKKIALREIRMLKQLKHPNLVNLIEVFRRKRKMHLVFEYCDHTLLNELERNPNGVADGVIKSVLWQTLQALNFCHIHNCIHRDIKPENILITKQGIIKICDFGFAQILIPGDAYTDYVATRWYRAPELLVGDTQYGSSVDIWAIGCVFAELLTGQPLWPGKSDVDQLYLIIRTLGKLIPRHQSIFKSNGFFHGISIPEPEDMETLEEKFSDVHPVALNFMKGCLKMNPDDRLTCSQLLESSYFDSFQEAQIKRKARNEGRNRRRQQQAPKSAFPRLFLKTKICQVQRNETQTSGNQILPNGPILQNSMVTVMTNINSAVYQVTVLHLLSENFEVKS
T7 sequence (Q9BQI3 whole entry): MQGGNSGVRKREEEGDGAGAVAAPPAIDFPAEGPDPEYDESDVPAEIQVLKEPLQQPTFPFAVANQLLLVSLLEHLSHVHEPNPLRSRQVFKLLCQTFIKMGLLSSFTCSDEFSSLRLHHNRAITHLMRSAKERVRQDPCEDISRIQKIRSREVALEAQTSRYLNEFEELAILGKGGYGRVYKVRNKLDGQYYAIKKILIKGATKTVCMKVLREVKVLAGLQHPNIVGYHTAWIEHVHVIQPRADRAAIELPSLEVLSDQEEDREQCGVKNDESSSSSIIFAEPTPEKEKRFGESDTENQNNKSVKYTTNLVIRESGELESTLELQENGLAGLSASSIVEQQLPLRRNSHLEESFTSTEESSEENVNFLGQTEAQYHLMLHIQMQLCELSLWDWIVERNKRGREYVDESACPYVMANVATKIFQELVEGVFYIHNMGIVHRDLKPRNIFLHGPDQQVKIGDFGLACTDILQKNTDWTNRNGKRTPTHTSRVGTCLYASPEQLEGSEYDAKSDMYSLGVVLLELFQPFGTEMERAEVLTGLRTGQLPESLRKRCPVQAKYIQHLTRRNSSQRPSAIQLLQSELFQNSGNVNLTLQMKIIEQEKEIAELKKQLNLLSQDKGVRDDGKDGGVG
T1 sequence (Q8IZX4 whole entry): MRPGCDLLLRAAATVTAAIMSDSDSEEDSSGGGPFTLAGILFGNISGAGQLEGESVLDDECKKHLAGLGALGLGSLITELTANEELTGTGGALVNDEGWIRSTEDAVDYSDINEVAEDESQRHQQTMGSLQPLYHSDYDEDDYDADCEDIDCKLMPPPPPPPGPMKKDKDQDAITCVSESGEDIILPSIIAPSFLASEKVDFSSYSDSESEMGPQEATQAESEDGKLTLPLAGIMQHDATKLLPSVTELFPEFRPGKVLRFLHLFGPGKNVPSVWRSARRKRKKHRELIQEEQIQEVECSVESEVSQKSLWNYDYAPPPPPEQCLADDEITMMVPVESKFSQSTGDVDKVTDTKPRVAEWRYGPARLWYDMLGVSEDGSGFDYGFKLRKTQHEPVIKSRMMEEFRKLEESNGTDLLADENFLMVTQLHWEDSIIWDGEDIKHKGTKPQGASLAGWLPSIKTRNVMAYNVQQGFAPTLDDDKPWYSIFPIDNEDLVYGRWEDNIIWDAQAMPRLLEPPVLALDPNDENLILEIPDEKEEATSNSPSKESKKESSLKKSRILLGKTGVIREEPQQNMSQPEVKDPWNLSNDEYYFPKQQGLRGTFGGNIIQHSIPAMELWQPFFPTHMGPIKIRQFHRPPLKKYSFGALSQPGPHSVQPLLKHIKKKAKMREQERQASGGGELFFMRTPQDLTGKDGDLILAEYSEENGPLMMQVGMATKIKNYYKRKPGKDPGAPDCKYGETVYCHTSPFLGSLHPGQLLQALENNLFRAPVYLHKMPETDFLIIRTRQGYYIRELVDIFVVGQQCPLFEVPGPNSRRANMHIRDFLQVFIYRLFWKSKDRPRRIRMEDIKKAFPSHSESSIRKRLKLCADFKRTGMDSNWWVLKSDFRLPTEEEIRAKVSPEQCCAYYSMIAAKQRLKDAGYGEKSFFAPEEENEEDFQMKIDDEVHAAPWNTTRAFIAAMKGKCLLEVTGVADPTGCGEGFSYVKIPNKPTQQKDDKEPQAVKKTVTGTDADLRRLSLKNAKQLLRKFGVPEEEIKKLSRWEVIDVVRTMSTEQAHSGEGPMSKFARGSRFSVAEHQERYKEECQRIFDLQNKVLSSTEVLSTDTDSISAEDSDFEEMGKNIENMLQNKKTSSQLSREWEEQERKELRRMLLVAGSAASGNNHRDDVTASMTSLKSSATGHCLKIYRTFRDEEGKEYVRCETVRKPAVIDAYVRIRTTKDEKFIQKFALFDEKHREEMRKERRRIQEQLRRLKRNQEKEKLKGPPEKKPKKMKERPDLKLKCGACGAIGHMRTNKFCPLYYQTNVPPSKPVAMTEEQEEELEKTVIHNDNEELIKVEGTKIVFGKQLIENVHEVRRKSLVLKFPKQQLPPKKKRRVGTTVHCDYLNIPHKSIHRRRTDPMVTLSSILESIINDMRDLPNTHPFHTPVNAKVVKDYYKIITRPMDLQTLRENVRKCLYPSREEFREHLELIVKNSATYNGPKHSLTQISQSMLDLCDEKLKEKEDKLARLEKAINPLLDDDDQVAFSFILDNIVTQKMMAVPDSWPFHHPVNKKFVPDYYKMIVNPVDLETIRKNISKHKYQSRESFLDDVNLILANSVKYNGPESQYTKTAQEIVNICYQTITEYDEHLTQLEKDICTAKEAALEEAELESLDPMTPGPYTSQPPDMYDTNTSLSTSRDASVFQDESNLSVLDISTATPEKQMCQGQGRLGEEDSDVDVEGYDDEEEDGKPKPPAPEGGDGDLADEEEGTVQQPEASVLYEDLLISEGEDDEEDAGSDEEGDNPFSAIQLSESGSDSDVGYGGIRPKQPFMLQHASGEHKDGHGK

## CNC(=O)[C@]1(C)CC[C@@H](Nc2ncc3c(Br)nn(-c4ccc(-c5nnc(C)s5)cc4)c3n2)C1
[1]
  Activity: Active
[2]
  inhibition in vivo at 50 mg/kg: 79%
[3]
  fold change (FC): 25
[4]
  fold change (FC): 28
[5]
  bioavailability: 50%
[6]
  bioavailability: 80%
[7]
  IC50: 124 nM
[8]
  IC50: 5 nM
[9]
  inhibition in vivo at 50 mg/kg: 56%
[10]
  fold change (FC): 20
[11]
  IC50: 16 nM
[12]
  Fu: 1%
[13]
  IC50: 118 nM
[14]
  IC50: 165 nM
[15]
  fold change (FC): > 200
[16]
  clearance: 10 mL/min/kg
[17]
  IC50: > 50000 nM
[18]
  IC50: > 50000 nM
[19]
  inhibition in vivo at 15 mg/kg: 84%
[20]
  IC50: 1310 nM
[21]
  IC50: 101 nM
[22]
  fold change (FC): 33
[23]
  Vd: 0.8 L/kg
[24]
  IC50: 191 nM
[25]
  AUC(0-inf): 4600 ng·h/mL
[26]
  IC50: 143 nM
[27]
  fold change (FC): 23
[28]
  inhibition in vivo at 15 mg/kg: 65%
[29]
  half-life: 1.2 h
[30]
  fold change (FC): > 10000
[31]
  fold change (FC): 38
[32]
  inhibition in vivo at 15 mg/kg: 80%
[33]
  AUC(0-inf): 1680 ng·h/mL
[34]
  IC50: > 1000 nM
[35]
  fold change (FC): > 10000
[36]
  half-life: 0.867 h
